Measurements reported in ChEMBL document CHEMBL3217439, “Deciphering intracellular targets of organochalcogen based redox catalysts” (Medchemcomm, 2012).
The source made the active and inactive calls. The rule behind the calls is not given here.

Tests used:
[1] = Cytotoxicity against Potorous tridactylus PtK2 cells after 18 hrs by MTT assay; type: functional, cell-based; conditions: PtK2, 18 h
HUVEC [2] = assay: Cytotoxicity against HUVEC after 18 hrs by MTT assay; type: functional, cell-based; conditions: Homo sapiens
A-431 [3] = assay: Cytotoxicity against human A431 cells after 18 hrs by MTT assay; type: functional, cell-based; conditions: A-431, 18 h
HCT-116 = assay: Cytotoxicity against human HCT116 cells after 18 hrs by MTT assay; type: functional, cell-based; conditions: HCT-116, 18 h
[4] = Cytotoxicity against human KB3-1 cells after 18 hrs by MTT assay; type: functional, cell-based; conditions: KB 3-1, 18 h
L929 = assay: Cytotoxicity against mouse L929 cells after 18 hrs by MTT assay; type: functional, cell-based; conditions: L929, 18 h
A-431 [5] = assay: Increase in ROS production in human A431 cells at after 1 hr by DCF assay; type: functional, cell-based
HUVEC [6] = assay: Increase in ROS production in HUVEC at after 1 hr by DCF assay; type: functional, cell-based; conditions: Homo sapiens
A-431 [7] = assay: Increase in ROS production in human A431 cells at after 1 hr by DHE assay; type: functional, cell-based
HUVEC [8] = assay: Increase in ROS production in HUVEC at after 1 hr by DHE assay; type: functional, cell-based; conditions: Homo sapiens
A-431 [9] = assay: Reduction in ATP level in human A431 cells assessed as cell viability after 10 mins by Cell Titer Glo luminescent assay; type: functional, cell-based
A-431 [10] = assay: Induction of apoptosis in human A431 cells assessed as caspase3/7 activation at 2.6 uM after 5 to 25 mins by luminescence assay; type: functional, cell-based
A-431 [11] = assay: Induction of apoptosis in human A431 cells at 10 ug/ml after 16 hrs using annexin V/propidium iodide by flow cytometry; type: functional, cell-based
A-431 [12] = assay: Induction of apoptosis in human A431 cells at 12 ug/ml after 16 hrs using annexin V/propidium iodide by flow cytometry; type: functional, cell-based
Escherichia coli [13] = assay: Antimicrobial activity against Escherichia coli expressing tolC after 1 to 2 days by agar diffusion assay; type: functional, organism-based
Escherichia coli [14] = assay: Antimicrobial activity against Escherichia coli A1 after 1 to 2 days by agar diffusion assay; type: functional, organism-based
Klebsiella pneumoniae = assay: Antimicrobial activity against Klebsiella pneumoniae after 1 to 2 days by agar diffusion assay; type: functional, organism-based
Pseudomonas aeruginosa = assay: Antimicrobial activity against Pseudomonas aeruginosa after 1 to 2 days by agar diffusion assay; type: functional, organism-based
Staphylococcus aureus = assay: Antimicrobial activity against Staphylococcus aureus after 1 to 2 days by agar diffusion assay; type: functional, organism-based
Micrococcus luteus = assay: Antimicrobial activity against Micrococcus luteus after 1 to 2 days by agar diffusion assay; type: functional, organism-based
Mycolicibacterium phlei = assay: Antimicrobial activity against Mycobacterium phlei after 1 to 2 days by agar diffusion assay; type: functional, organism-based
Wickerhamomyces anomalus = assay: Antimicrobial activity against Hansenula anomala after 1 to 2 days by agar diffusion assay; type: functional, organism-based
Botrytis cinerea = assay: Antimicrobial activity against Botrytis cinerea after 1 to 2 days by agar diffusion assay; type: functional, organism-based
[15] = tested on: Globisporangium debaryanum; assay: Antimicrobial activity against Pythium debaryanum after 1 to 2 days by agar diffusion assay; type: functional, organism-based
Aspergillus niger = assay: Antimicrobial activity against Aspergillus niger after 1 to 2 days by agar diffusion assay; type: functional, organism-based
Tubulin (Sus scrofa) [16] = biological target: T1, Tubulin (Sus scrofa) (UniProt P02554+P02550); assay: (§1) Inhibition of pig brain tubulin polymerization by spectrophotometry
T1 sequence (P02550 whole entry, looked up): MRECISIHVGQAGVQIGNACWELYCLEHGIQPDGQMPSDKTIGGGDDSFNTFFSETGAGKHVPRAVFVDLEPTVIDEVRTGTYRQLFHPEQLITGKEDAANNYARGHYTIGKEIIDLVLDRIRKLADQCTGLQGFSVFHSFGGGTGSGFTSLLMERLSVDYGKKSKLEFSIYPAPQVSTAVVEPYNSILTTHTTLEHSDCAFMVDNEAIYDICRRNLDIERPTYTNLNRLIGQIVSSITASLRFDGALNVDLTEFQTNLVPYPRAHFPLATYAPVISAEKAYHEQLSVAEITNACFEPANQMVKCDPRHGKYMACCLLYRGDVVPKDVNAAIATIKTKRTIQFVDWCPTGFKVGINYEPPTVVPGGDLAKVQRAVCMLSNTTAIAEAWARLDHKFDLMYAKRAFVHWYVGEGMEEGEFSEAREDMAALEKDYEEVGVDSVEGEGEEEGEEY
T1 sequence (P02554 whole entry, looked up): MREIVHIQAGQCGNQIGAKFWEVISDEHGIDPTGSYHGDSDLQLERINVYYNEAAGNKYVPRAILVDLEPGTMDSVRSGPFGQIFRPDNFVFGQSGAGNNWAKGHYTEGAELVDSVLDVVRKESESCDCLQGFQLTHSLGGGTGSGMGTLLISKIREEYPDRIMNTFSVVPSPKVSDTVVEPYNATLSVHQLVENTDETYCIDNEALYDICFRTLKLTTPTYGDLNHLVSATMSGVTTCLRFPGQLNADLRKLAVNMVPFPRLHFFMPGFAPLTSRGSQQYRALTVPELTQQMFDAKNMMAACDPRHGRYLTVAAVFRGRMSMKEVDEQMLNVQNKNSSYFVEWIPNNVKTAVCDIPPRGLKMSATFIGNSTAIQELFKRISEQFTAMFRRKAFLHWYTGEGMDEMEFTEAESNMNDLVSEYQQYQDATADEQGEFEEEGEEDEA

[17] = Inhibition of rabbit actin polymerization by spectrophotometry; design: species or system Oryctolagus cuniculus
Tubulin (Sus scrofa) [18] = biological target: T1, Tubulin (Sus scrofa); assay: Binding affinity to pig brain tubulin at IC50 after 2 hrs by DARTS-Western blot method
Oryctolagus cuniculus [19] = species: Oryctolagus cuniculus; assay: Binding affinity to rabbit actin polymerization at IC50 after 2 hrs by DARTS-Western blot method
[20] = Depletion of microtubules in Potorous tridactylus PtK2 cells at IC90 by microscopy; type: cell-based
[21] = Depletion of actin filaments in Potorous tridactylus PtK2 cells at IC90 by microscopy; type: cell-based
Tubulin (Sus scrofa) [22] = biological target: T1, Tubulin (Sus scrofa); assay: Binding affinity to pig brain tubulin after 2 hrs by DARTS-Western blot method; type: tissue-based
Tubulin = Tubulin (Sus scrofa, UniProt P02554+P02550); assay: as §1
Oryctolagus cuniculus [23] = species: Oryctolagus cuniculus; assay: Binding affinity to rabbit actin polymerization after 2 hrs by DARTS-Western blot method
Tubulin (Sus scrofa) [24] = biological target: T1, Tubulin (Sus scrofa); assay: Binding affinity to pig brain tubulin at IC90 after 2 hrs by DARTS-Western blot method
Oryctolagus cuniculus [25] = species: Oryctolagus cuniculus; assay: Binding affinity to rabbit actin polymerization at IC90 after 2 hrs by DARTS-Western blot method

| Compound | IC50 [1] [µM] | IC50 (HUVEC [2]) [µM] | IC50 (A-431 [3]) [µM] | IC50 (HCT-116) [µM] | IC50 [4] [nM] | IC50 (L929) [µM] | Activity (A-431 [5]) | Activity (HUVEC [6]) | Activity (A-431 [7]) | Activity (HUVEC [8]) | Activity (A-431 [9]) | Activity (A-431 [10]) | Activity (A-431 [11]) | Activity (A-431 [12]) | Activity (Escherichia coli [13]) | Activity (Escherichia coli [14]) | Activity (Klebsiella pneumoniae) | Activity (Pseudomonas aeruginosa) | Activity (Staphylococcus aureus) | Activity (Micrococcus luteus) | also measured |
| --- | --- | --- | --- | --- | --- | --- | --- | --- | --- | --- | --- | --- | --- | --- | --- | --- | --- | --- | --- | --- | --- |
| O=C1C([Te]c2ccccc2)=C([Te]c2ccccc2)C(=O)c2ccccc21 | 7.2 | 5.1 | 4.4 | 5.4 | 250 | 5.8 | Dose-dependent effect | Dose-dependent effect | Dose-dependent effect | Dose-dependent effect | Active | Active | Active | Active | Active | Active | Active | inactive | Active | Active | Activity (Mycolicibacterium phlei): Active; Activity (Wickerhamomyces anomalus): Active; Activity (Botrytis cinerea): Active; Activity [15]: Active; Activity (Aspergillus niger): Active; inhibition (Tubulin (Sus scrofa) [16]): inactive; IC50 [17]: 30 µM; Activity (Tubulin (Sus scrofa) [18]): inactive; Activity (Oryctolagus cuniculus [19]): Active; Activity [20]: inactive; Activity [21]: Active |
| CC[C@@H](C)[C@H](NC(=O)[C@H]1CCCCN1C)C(=O)N(COC(=O)CC(C)C)[C@H](C[C@@H](OC(C)=O)c1nc(C(=O)N[C@@H](Cc2ccc(O)cc2)C[C@H](C)C(=O)O)cs1)C(C)C | – | – | – | – | – | – | – | – | – | – | – | – | – | – | – | – | – | – | – | – | Activity (Tubulin (Sus scrofa) [22]): Active |
| CC1=C([Te]c2ccccc2)C(=O)c2ccccc2C1=O | 9 | 9.5 | 5 | 5.3 | 1300 | 11 | Dose-dependent effect | Dose-dependent effect | Dose-dependent effect | Dose-dependent effect | Active | Active | Active | Active | Active | Active | Active | inactive | Active | Active | Activity (Mycolicibacterium phlei): Active; Activity (Wickerhamomyces anomalus): Active; Activity (Botrytis cinerea): Active; Activity [15]: Active; Activity (Aspergillus niger): Active; IC50 (Tubulin): 15 µM; IC50 [17]: 30 µM; Activity (Tubulin (Sus scrofa) [22]): Dose-dependent effect; Activity (Oryctolagus cuniculus [23]): Dose-dependent effect; Activity (Tubulin (Sus scrofa) [24]): Active; Activity (Oryctolagus cuniculus [25]): Active; Activity [20]: Active; Activity [21]: Active |
| COC1CC(O)/C=C/C=C/C=C\C(C)C(C(C)C(O)CC(C)O)OC(=O)/C=C/C=C/C=C/C(C)=C/C(C)C(O[C@H]2O[C@H](C)[C@@H](O)[C@H](OC)[C@H]2OC)/C=C\C=C\c2coc(n2)C1C (stereo partly specified) | – | – | – | – | – | – | – | – | – | – | – | – | – | – | – | – | – | – | – | – | Activity (Oryctolagus cuniculus [19]): Active |
